What was measured:
[1] = test system: cardiac hemodynamics of anaesthetized dogs; assay: Cardiac hemodynamics in dogs anaesthetized with Nembutal, closed thorax; format: in vivo, dog
Protocol: (§1) The positive inotropic effect of compounds (I) of the invention and the pharmaceutically acceptable salts thereof were further tested on the cardiac dynamics of an anaesthetized animal and on a wakeful chronically implanted animal.
(§2) a. Test on a dog anaesthetized with Nembutal
(§3) Two test protocols were carried out, one on a dog with open thorax and the other on a dog with closed thorax. The left intraventricular pressure (PIVG) and aortic pressure (supra sigmoid) (PAO) were measured with high fidelity micro-sensors (Millar 5F), the first derivative of the left ventricular pressure (dP/dt) was recorded as well as the electrocardiogram. The instantaneous alveolar PCO2 was continuously measured. Finally, different blood flow rates were measured, namely the femoral and carotid flow rates in the animals with closed thorax and the aortic and coronary flow rates in those on which a thoracotomy had been performed. These different rates were measured by the electro-magnetic method.
An analysis of the dose/effect relation on three dogs (see results shown in table V below) confirmed the results obtained on dogs with open thorax for compound 1a.

[2] = test system: cardiac hemodynamics in chronically implanted wakeful dogs; assay: Cardiac hemodynamics in chronically implanted wakeful dogs; format: in vivo, dog
Protocol: as §1
b. Test on chronically implanted wakeful dogs
The compounds were tested orally and intravenously on dogs previously implanted with a pressure probe placed in the left ventricle (Janssen) and a Doppler rate sensor placed on the aorta, the tests being carried out at the minium 8 days after implantation.

[3] = Toxicity by a single intravenous administration in mice; format: in vivo; details: mouse, in vivo; single intravenous administration, mice; Litchfield and Wilcoxon; read-out: LD50 (95% confidence limit)
Protocol: (§4) The toxicity of the compounds of the invention was also tested. It concerns more precisely the test of toxicity by a single administration made for all the compounds on male mice, E.O.P.S. of SWISS strain (5 animals per batch).
(§5) The compounds under test were solubilized in a […] aqueous solution of NaCl, at various concentrations and the solutions obtaoned were injected intravenously at the rate of 10 ml.kg^-1 of body weight.
(§6) The administration was made in 20 seconds, the animals being kept under clinical observation for 3 hours after administration, then daily for 7 days.

[4] = test system: cardiac hemodynamics in anaesthetized dogs; assay: Cardiac hemodynamics in dogs anaesthetized with Nembutal, open thorax; format: in vivo, dog
Protocol: as §1, §2, §3

[5] = molecular target: T1, isolated left auricle of a guinea pig (cardiac inotropic function β1) (Cavia porcellus, UniProt H0W3H1); assay: Positive inotropic effect: contractile force of the isolated left auricle of a guinea pig
T1 construct: the left auricle being swiftly removed and immersed immediately in a Krebs-Henseleit solution; from tissue; host or cells: isolated left auricle of guinea pigs of either sex
T1 sequence (H0W3H1 1-470): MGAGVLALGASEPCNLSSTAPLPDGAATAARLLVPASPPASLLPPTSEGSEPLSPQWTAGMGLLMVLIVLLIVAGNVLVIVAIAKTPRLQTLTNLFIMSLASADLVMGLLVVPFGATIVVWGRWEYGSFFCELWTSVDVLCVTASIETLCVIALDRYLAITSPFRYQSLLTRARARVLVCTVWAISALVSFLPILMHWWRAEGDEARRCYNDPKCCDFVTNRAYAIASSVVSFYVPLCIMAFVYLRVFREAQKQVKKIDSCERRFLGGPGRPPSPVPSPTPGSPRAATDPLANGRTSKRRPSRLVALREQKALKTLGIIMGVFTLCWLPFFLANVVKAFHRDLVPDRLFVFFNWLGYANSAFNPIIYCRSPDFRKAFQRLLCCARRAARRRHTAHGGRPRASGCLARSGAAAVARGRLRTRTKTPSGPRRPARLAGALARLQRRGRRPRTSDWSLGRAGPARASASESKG
Text: The in vitro study was made on the contractile force of the isolated left auricle of a guinea pig. The technique used was that of P. LUMBEY et Coll. […] It allowed the cardiac inotropic function β1 to be studied.
The preparation was connected to an isometric myograph (F-50 Narco), then to a recording system (Physiograph M-K III Narco). For the whole duration of the test the auricle was electrically stimulated by a neurostimulator (Equipement Industriel II) at the frequence of 90 to 120 beats/min.

[6] = test system: isolated right auricle of a guinea pig; assay: Chronotropic action (bradycardizing effect) on the isolated right auricle of a guinea pig; details: 1·10^-4 g·ml^-1, 30 minutes contact, % reduction of beats/minute; for inhibition at 100 µg/mL: Cavia porcellus, 0.5 h
Protocol: Guinea pigs of either sex were killed with a blow and bled, the right auricle was swiftly removed and immediately immersed in a Krebs-Henseleit solution, thermostatically controlled to 36° C.±0.5° C. and aerated with a mixture of O2 and CO2 (95% and 5%). The preparation was connected to an isometric myograph (F-50 Narco) then to a recording system (Physiograpg M-K III--Narco).
A 60 minute delay was required for ensuring chronotropic action stability.
The compounds (I) of the invention and the pharmaceutically acceptable salts thereof were added to the nutritive medium in a concentration of 1.10^-4 g.ml^-1 and left in contact with the auricle for 30 minutes. The action was evaluated by the percentage reduction of the number of beats/minute (beat/min.) before administration of the compound under test.

[7] = test system: male mice, E.O.P.S. of SWISS strain; assay: Toxicity by a single intravenous administration in mice; format: in vivo; details: single i.v. administration; symptoms observed at the dose where there was no mortality
Protocol: as §4, §5, §6

[8] = 0.5 mg·kg^-1 i.v., closed thorax

## c1ccc(N2CCN(CC3CC3)CC2)nc1 [Compound 1a, 1-(2-pyridyl) 4-cyclopropylmethyl piperazine]
[1]; [8]
  P.Ao m (average aortic pressure) modification: +11%
  PtdVG (left ventricular telediastolic pressure) modification: -35%
[1]; 2 mg·kg^-1 i.v., closed thorax
  P.Ao m (average aortic pressure) modification: +8%
  PtdVG (left ventricular telediastolic pressure) modification: -31%
  dP/dt+ (first derivative of the left ventricular pressure) modification: +28%
[1]; anaesthetized dogs, i.v.
  respiratory analeptic effect: appreciable and durable respiratory analeptic effect
[1]; i.v., closed thorax
  duration of the positive inotropic effect: exceeds three
[1]; i.v., closed thorax, increasing the dose did not increase the effect
  dose at which the acme of the positive inotropic effect appeared: 0.5 mg/kg
[2]; 1 mg.kg^-1 intravenously
  increase of the dP/dt+: 136%
[2]; 5 mg·kg^-1 p.o.
  PIVG Syst. (left intraventricular pressure) modification: +15%
[2]; 10 mg·kg^-1 p.o.
  D.A.O. (aortic flow rate) modification: +27%
  F.C. (heartbeat rate, cardiac frequency) modification: +45%
  PIVG Syst. (left intraventricular pressure) modification: +26%
  dP/dt+ (first derivative of the left ventricular pressure) modification: +55%
[2]; 5 and 10 mg.kg^-1 orally (results approximately similar for both doses)
  increase of dP/dt+/P: 32%
[3]
  LD50 at 168 h: 47 mg/kg
[4]; 0.5 mg·kg^-1 i.v.
  other parameters measured: did not vary significantly
  time of the acme of the action after injection: 45 min
[4]; 0.5 mg·kg^-1 i.v., significant
  decrease of left ventricular telediastolic pressure: 28%
[4]; 1 mg·kg^-1 i.v.
  D.A.O. (aortic flow rate) modification: +23%
  V.E.S. (systolic ejection volume) modification: +13%
  time following injection during which dP/dt increased significantly: 90 min
[4]; 1 mg·kg^-1 i.v., significant
  dP/dt+ (first derivative of the left ventricular pressure) modification: +31%
[5]; guinea pig, read-out: α (intrinsic activity)
  Emax: 60 ± 30%
[5]; negative log. of the molar concentration producing 50% of maximum action, stimulated at 90 to 120 beats/min, read-out: pD2 (converted)
  EC50: 20.9 µM
[6]
  inhibition at 100 µg/mL: 24%

## c1ccc(N2CCN(CC3CCC3)CC2)nc1 [Compound 2]
[3]
  LD50 at 168 h: 67 mg/kg
[6]
  inhibition at 100 µg/mL: 7%

## c1ccc(N2CCN(CC3CCCCC3)CC2)nc1 [Compound 3]
[3]
  LD50 at 168 h: 81 mg/kg
[7]
  Clinical symptomatology: Hypersensitivity, stereotypy
[6]
  inhibition at 100 µg/mL: 13%

## CC(C)N(CCN1CCN(c2ccccn2)CC1)C(C)C [Compound 4]
[3]
  LD50 at 168 h: 95 mg/kg
[7]
  Clinical symptomatology: Cyanosis, starts
[6]
  inhibition at 100 µg/mL: 9%

## c1ccc(N2CCN(CCN3CCCCCC3)CC2)nc1 [Compound 6]
[3]
  LD50 at 168 h: 84 mg/kg
[6]
  Reduction of the chronotropic effect: Arrhythmia

## CCN(CC)CCCN1CCN(c2ccccn2)CC1 [Compound 7]
[3]
  LD50 at 168 h: 96 mg/kg
[7]
  Clinical symptomatology: Cyanosis, apnoea
[6]
  inhibition at 100 µg/mL: 16%

## c1ccc(N2CCN(CCCN3CCCC3)CC2)nc1 [Compound 8]
[3]
  LD50 at 168 h: 142 mg/kg
[6]
  inhibition at 100 µg/mL: 20%

## c1ccc(N2CCN(CCCN3CCCCCC3)CC2)nc1 [Compound 10]
[3]
  LD50 at 168 h: 74 mg/kg
[6]
  inhibition at 100 µg/mL: 0%

## c1ccc(N2CCN(CCCN3CCOCC3)CC2)nc1 [Compound 11]
[6]
  Reduction of the chronotropic effect: Arrhythmia

## CC1CN(CCCN2CCN(c3ccccn3)CC2)CC(C)O1 (stereo not drawn) [Compound 12]
[3]
  LD50 at 168 h: 149 mg/kg
[6]
  inhibition at 100 µg/mL: 0%

## CCN(CC)CC(C)N1CCN(c2ccccn2)CC1 (stereo not drawn) [Compound 13]
[3]
  LD50 at 168 h: 76 mg/kg
[6]
  Reduction of the chronotropic effect: Arrhythmia

## O=C(CN1CCN(c2ccccn2)CC1)Nc1cccc(F)c1 [Compound 14]
[3]
  LD50 at 168 h: 129 mg/kg
[7]
  Clinical symptomatology: Apnoea, sedation
[6]
  inhibition at 100 µg/mL: 18%

## O=C(CN1CCN(c2ccccn2)CC1)Nc1cc(F)cc(F)c1 [Compound 15]
[6]
  inhibition at 100 µg/mL: 0%

## O=C(CN1CCN(c2ccccn2)CC1)Nc1cccc(C(F)(F)F)c1 [Compound 16]
[3]
  LD50 at 168 h: 109 mg/kg
[6]
  inhibition at 100 µg/mL: 18%

## COc1cc(CN2CCN(c3ccccn3)CC2)cc(OC)c1OC [Compound 17]
[3]
  LD50 at 168 h: 130 mg/kg
[6]
  inhibition at 100 µg/mL: 31%

## Clc1c(CN2CCN(c3ccccn3)CC2)ccc2c1OCO2 [Compound 18]
[6]
  inhibition at 100 µg/mL: 11%

Reference: US4673675A, “1-(2-pyridyl) 4-cycloalkylmethyl piperazines having cardiotropic activity” (Innothera, priority 1984, dated 1987)
